Results as given in patent US6610682B2, “Pharmaceutical compositions and methods for the treatment of arteriosclerosis” (Sankyo Company, Limited, priority 1996, dated 2003).

How the values were obtained:
Assay type in all cases: in vivo, rabbit
WHHL rabbits [1] = assay: Arterial sclerosis progress inhibitory effect: surface area of aortic lesions (Example 2, 31 weeks); conditions: oral, CS-866 0.5 mg/kg, pioglitazone 20 mg/kg, BRL-49653 2.5 mg/kg, alone or combined, autopsy in 31st week
Procedure: A certain amount of an agent was administered orally for 31 weeks to 2-3 months old WHHL rabbits, Watanabe genetically hyperlipemic rabbits: described supra (Biochimica et Biophysica Acta), etc., in groups of 5 to 7 animals each. Incidentally, food consumption was restricted to 100 g/day per animal. Blood samples were collected immediately before administration of the agent and 8, 16, 24 and 31 weeks after the start of administration to measure total cholesterol levels (mg/dl). There were no changes observed in any of the dose groups as compared with the control group to which no agents were administered. In addition, the test animals were subjected to autopsy in the 31st week to investigate the surface area of aortic lesions (%) and the incidence of xanthochromia in finger joints.

WHHL rabbits [2] = assay: Arterial sclerosis progress inhibitory effect: surface area of aortic lesions (Example 1, 32 weeks); conditions: oral, CS-866 1 mg/kg, troglitazone 25 mg/kg, alone or combined, autopsy in 32nd week
Procedure: (§1) A certain amount of an agent was administered orally for 32 weeks to 2-3 months old WHHL rabbits, Watanabe genetically hyperlipemic rabbits: supra (Biochimica et Biophysica Acta), etc., in groups of 4 to 7 animals each. Incidentally, food consumption was restricted to 120 g/day per animal. Blood samples were collected immediately before administration of the agent and 4, 8, 12, 16, 20, 24, 28 and 32 weeks after the start of administration to measure total cholesterol levels (mg/dl). There were no changes observed in any of the dose groups as compared with the control group to which no agents were administered. The test animals were subjected to autopsy in the 32nd week to investigate the surface area of aortic lesions (%) and the incidence of xanthochromia in finger joints (%).

WHHL rabbits [3] = assay: Incidence of xanthochromia in finger joints (Example 1, 32 weeks); conditions: oral, CS-866 1 mg/kg, troglitazone 25 mg/kg, alone or combined
Procedure: as §1

SMILES | Lesion surface area (%) Abdominal region (WHHL rabbits [1]) [%] | Lesion surface area (%) Arcuate region (WHHL rabbits [1]) [%] | Lesion surface area (%) Overall (WHHL rabbits [1]) [%] | Lesion surface area (%) Thoracic part (WHHL rabbits [1]) [%] | Lesion surface area (%) Abdominal region (WHHL rabbits [2]) [%] | Lesion surface area (%) Arcuate region (WHHL rabbits [2]) [%] | Lesion surface area (%) Overall (WHHL rabbits [2]) [%] | Lesion surface area (%) Thoracic part (WHHL rabbits [2]) [%] | Xanthochromia incidence (%) Forelimbs (WHHL rabbits [3]) [%] | Xanthochromia incidence (%) Hindlimbs (WHHL rabbits [3]) [%] | Xanthochromia incidence (%) Overall (WHHL rabbits [3]) [%]
CN(CCOc1ccc(CC2SC(=O)NC2=O)cc1)c1ccccn1 (centres unmarked) [BRL-49653, 5-[4-[2-[N-methyl-N-(pyridin-2-yl)amino]ethoxy]phenylmethyl]-2,4-thiazolidinedione] | 29 ± 4 | 83 ± 2 | 52 ± 5 | 54 ± 12 |  |  |  |  |  |  | 
CCc1ccc(CCOc2ccc(CC3SC(=O)NC3=O)cc2)nc1 (centres unmarked) [Pioglitazone, 5-[4-[2-(5-ethyl-pyridin-2-yl)ethoxy]phenylmethyl]-2,4-thiazolidinedione] | 32 ± 6 | 65 ± 6 | 52 ± 8 | 62 ± 12 |  |  |  |  |  |  | 
CCCc1nc(C(C)(C)O)c(C(=O)OCc2oc(=O)oc2C)n1Cc1ccc(-c2ccccc2-c2nnn[nH]2)cc1 [CS-866, (5-methyl-2-oxo-1,3-dioxolen-4-yl)methyl 4-(1-hydroxy-1-methylethyl)-2-propyl-1-[2′-(1H-tetrazol-5-yl)biphenyl-4-ylmethyl]imidazole-5-carboxylate] | 32 ± 8 | 66 ± 5 | 44 ± 7 | 41 ± 10 | 19 | 68 | 34 | 26 | 100 | 100 | 100
Cc1c(C)c2c(c(C)c1O)CCC(C)(COc1ccc(CC3SC(=O)NC3=O)cc1)O2 (centres unmarked) [Troglitazone, 5-[4-(6-hydroxy-2,5,7,8-tetramethylchroman-2-ylmethoxy)benzyl]-2,4-thiazolidinedione] |  |  |  |  | 32 | 80 | 54 | 57 | 93 | 86 | 89
